Measured values as given in ChEMBL document CHEMBL2073857, “Increased sensitivity to vincristine of MDR cells by the leukotriene D4 receptor antagonist, ONO-1078” (Cancer Lett, 1998).

Biological target: Multidrug resistance-associated protein 1 (MRP1) (Homo sapiens, UniProt P33527)
Test: TP_TRANSPORTER: inhibition of LTC4 uptake (LTC4: 0.00134 uM, ONO-1078: 100 uM) in membrane vesicles from CV60 cells
Format: functional, cell membranes, Membrane vesicle
Design: scale not given: the % may be the effect or the level left
Details: probe LTC4 (0.00134 uM), read-out: Activity

Multidrug resistance-associated protein 1 (MRP1), sequence (P33527 whole entry): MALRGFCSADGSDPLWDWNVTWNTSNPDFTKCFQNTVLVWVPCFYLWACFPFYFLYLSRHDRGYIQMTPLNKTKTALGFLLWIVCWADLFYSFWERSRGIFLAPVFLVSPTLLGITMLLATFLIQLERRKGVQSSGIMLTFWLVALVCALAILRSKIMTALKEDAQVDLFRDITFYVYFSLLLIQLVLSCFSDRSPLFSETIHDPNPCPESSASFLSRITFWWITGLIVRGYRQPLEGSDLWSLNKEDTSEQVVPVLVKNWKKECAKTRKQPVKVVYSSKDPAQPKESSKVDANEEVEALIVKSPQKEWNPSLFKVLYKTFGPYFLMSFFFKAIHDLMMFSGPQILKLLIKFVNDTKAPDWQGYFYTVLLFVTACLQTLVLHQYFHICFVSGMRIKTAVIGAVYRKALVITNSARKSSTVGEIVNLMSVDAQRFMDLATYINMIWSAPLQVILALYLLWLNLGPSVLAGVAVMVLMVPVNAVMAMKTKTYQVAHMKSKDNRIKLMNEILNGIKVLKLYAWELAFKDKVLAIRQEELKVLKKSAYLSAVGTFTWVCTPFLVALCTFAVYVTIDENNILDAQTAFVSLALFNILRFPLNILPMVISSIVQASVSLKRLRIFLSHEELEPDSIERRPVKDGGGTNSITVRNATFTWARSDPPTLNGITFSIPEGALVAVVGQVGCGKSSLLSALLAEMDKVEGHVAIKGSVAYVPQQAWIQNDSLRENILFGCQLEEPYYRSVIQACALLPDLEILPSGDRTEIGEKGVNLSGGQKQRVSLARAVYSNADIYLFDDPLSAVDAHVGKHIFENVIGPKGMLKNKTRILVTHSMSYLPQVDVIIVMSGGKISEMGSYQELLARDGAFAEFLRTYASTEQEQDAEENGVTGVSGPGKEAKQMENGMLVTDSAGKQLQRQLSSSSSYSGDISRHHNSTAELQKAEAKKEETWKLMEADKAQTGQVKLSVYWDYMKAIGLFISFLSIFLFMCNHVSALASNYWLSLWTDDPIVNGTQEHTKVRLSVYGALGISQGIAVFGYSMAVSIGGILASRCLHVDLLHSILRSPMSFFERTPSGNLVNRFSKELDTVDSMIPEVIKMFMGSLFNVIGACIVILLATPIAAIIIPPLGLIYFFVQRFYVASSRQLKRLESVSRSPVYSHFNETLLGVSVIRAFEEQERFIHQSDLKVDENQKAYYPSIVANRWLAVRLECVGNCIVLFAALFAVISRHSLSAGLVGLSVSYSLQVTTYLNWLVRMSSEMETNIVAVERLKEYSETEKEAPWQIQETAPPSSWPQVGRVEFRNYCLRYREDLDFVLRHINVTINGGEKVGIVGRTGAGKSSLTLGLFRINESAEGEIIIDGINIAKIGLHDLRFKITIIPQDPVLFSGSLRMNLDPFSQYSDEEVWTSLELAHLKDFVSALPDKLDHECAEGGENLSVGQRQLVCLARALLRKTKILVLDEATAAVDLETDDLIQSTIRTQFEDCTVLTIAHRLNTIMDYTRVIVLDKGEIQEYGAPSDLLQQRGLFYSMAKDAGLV

activity at 100 µM: 55%
SMILES: O=C(Nc1cccc2c(=O)cc(-c3nnn[nH]3)oc12)c1ccc(OCCCCc2ccccc2)cc1 [PRANLUKAST]
